Experiment [1] has as its system osteoporotic model mice. The experiment can be described thus: Mineral concentration and ALP activity in mouse sera. The experiment is classed as in vivo. To be noted: ovariectomized ICR female mice, fed test feeds for 2 months (doses Table 4). Here is the method: (§1) For study ICR female model mice of 10 weeks (of 20 g) were used. These mice underwent ovariectomy (OVX control group) and sham operation (sham operated group), and were subsequently fed with a conventional diet for 2 months, and then divided into 6 groups, each group having 10 mice. Of these, an OVX control group and a sham operated group were fed with 1.5 to 1.8% calcium containing feed which contained calcium carbonate as a calcium source. Further as a reference group, one group was treated with a bisphosphonate preparation (risedronate), which is an anti-osteoporotic agent showing obviously higher bone density. Remaining 3 groups were fed with special feeds, containing foodstuff and food additives. Combinations of foodstuff and food additives used in the present study are shown below in Table 4.
(§2) After being fed these feeds for 2 months, mice were decapitated for blood collection. Then serum was separated from the collected blood, and after that calcium, phosphorus, and magnesium concentrations and alkaline phosphatase level of the serum were determined. Furthermore, after a resection of femurs, a three-dimensional bone densitometry and bone structure analysis were conducted on the femoral distal epiphyses and diaphyses, using pQCT (Peripheral Quantitative Computed Tomography) and μCT (micro focus X-ray CT).
Subsequently, blood was collected from the tested mice of each group, and mineral concentration and ALP activity in serum were determined. Blood collection was conducted by decapitating under a twilight sleep. The collected blood stood for 1 hour at ice temperature, and thereafter the serum was separated by a centrifuge for 10 minutes at 1000 rpm. Calcium amount was determined by chelete coloring method. 50 μL of serum was added to 5 mL of a 0.88 M monoethanolamine buffer adjusted to pH=11, and a mixture of o-cresol-phthalein complexone and 8-quinolinol as a coloring agent was further added. The resulting mixture was sufficiently stirred and stood for 5 minutes, and thereafter absorbance at 570 nm determined using a spectrometer. Phosphorus was determined by direct molybdenum blue method. After 0.2 mL of serum was added to 5 mL of a coloring agent and the resulting mixture stood for 15 minutes at room temperature, absorbance at 690 nm was determined using a spectrometer. The coloring agent was prepared by adding a surfactant to a mixture of ammonium molybdate, ammonium ferrous sulfate and sulfate. Magnesium was determined by xylidyl blue method. 3 mL of a coloring agent was added to 20 μL of serum and the resulting mixture stood for 10 minutes at room temperature, and thereafter absorbance at 520 nm was determined using a spectrometer. The coloring agent was prepared by adding a surfactant to a mixture of xylylazo violet I and ethylene glycol tetraacetic acid.
Alkaline phosphatase was determined by phenyl phosphoric acid substrate method. After 50 μL of serum was added to 2 mL of a substrate buffer and heated at 37° C. for 15 minutes, 2 mL of 36 mM potassium ferricyanide. The resulting mixture was sufficiently stirred, and thereafter absorbance at 570 nm was determined using a spectrometer. The substrate buffer was prepared by adding a mixture of 4-aminoantipyrine and phenylphosphoric acid to 50 mM carbonate buffer adjusted to pH=10.5.
In all of these determinations assay kits for clinical and biochemical use manufactured by Wako Pure Chemicals, Co., Ltd. were used.

Experiment [2] deals with osteoporotic model mice. Description: pQCT three-dimensional bone densitometry of femoral distal epiphyses and diaphyses. Particulars: for Items showing a significant difference: number of the 14 pQCT parameters (epiphyses and diaphyses) differing significantly from OVX control group; for Epiphyses Bone Density, significant difference vs OVX control group / Epiphyses Cortical Bone Cross-Section, significant difference vs OVX control group / Epiphyses Cortical Bone Thickness, significant difference vs OVX control group / Epiphyses Trabecular Bone Density, significant difference vs OVX control group: femoral distal epiphyses. The experiment is classed as in vivo, mouse. Here is the method: as §1, §2
Subsequently, a bone mass density (mg/cm^3) as a physical quantity was analyzed separately for trabecular bones and cortical bones based on three-dimensional bone densitometry conducted using pQCT on the femoral distal epiphyses and diaphyses and cross-sectional images acquired in pQCT, and bone strength index was identified based on cortical bone width, second moment of area, and section modulus etc. Student's t-test was used for statistical treatment for comparison between the groups.

Experiment [3] relates to osteoporotic model mice. The experiment can be described thus: μCT three-dimensional trabecular structure analysis of femoral distal epiphyses. It is filed as in vivo, mouse. To be noted: for Conclusion of 3-D image analysis: effects on bone density and trabecular structure: OVX mice, distal epiphyses and diaphyses, FIGS. 8 and 9; for Order according to the importance of the effects on improvement of trabecular bone structure: ranked after sham and risedronate groups. The method, then:
as §1, §2
For an analysis of the trabecular structure, three-dimensional image data of femoral distal epiphyses were acquired using X-ray μCT (MCT-CB130F, Hitachi Medico), of 8×8 μm focus, with micro focus X-ray tube. As conditions for imaging, tube voltage was 40 kV, tube current 100 μA, and voxel size 17.8×17.8×17.8 μm, so that 50 volume data for each were acquired. Three-dimensional images were reconstructed based on the acquired 50 two-dimensional images of a trabecular bone and a cortical bone. 3D parameters were then determined on these 3D images using trabecular structure measuring software (TRI/3D-BON; RATOC System Engineering, Co., Ltd). The determined structural parameters are listed below in Table 5.
Student's t-test was used for statistical treatment for comparison between the groups. Only the parameters showing significant difference in the OVX control group are compared to those in the remaining groups.

Setting [4] is: pQCT, femoral diaphyses, p value, Student's t-test, 2 months feeding.
[5] abbreviates: pQCT, femoral diaphyses, p value, Student's t-test, 2 months feeding, listed as risedronate.
[6] abbreviates: pQCT, p value, Student's t-test, 2 months feeding.
[7] abbreviates: pQCT, p value, Student's t-test, 2 months feeding, listed as risedronate.

On to `CC(C)=CCC/C(C)=C/CC/C(C)=C/CC/C(C)=C/CC1=C(C)C(=O)c2ccccc2C1=O` [MK-4, Vitamin K2 (MK-4)], for which, in experiment [1], the “ALP activity in serum” value is given as 3.52 ± 1.82 BL unit, the Ca in serum is reported as 9.60 ± 0.51 mg/dL, the Mg in serum was 2.67 ± 0.28 mg/dL and the P in serum came out at 6.96 ± 0.44 mg/dL. Besides, in experiment [2], the “Items showing a significant difference” value stood at 2. The “Diaphyses Trabecular Bone Density, significant difference vs OVX control group” value in experiment [2] (setting [4]) is listed as “p < 0.05”. For the same molecule, in experiment [3], the “Conclusion of 3-D image analysis: effects on bone density and trabecular structure” value is “improvement in bone internal structure was observed as a prevalent effect”. The “Order according to the importance of the effects on improvement of trabecular bone structure” value in experiment [3] (μCT, femoral distal epiphyses) was “MK7, the composite and MK4 is arranged in this order”.

For `CC(C)=CCC/C(C)=C/CC/C(C)=C/CC/C(C)=C/CC/C(C)=C/CC/C(C)=C/CC/C(C)=C/CC1=C(C)C(=O)c2ccccc2C1=O` [MK-7, Vitamin K2 (MK-7)], in experiment [1], the “ALP activity in serum” value turned out to be 3.77 ± 1.76 BL unit, the Ca in serum is recorded as 9.34 ± 1.50 mg/dL, the Mg in serum is 2.63 ± 0.63 mg/dL and the P in serum stood at 7.12 ± 0.64 mg/dL. Further, the “Items showing a significant difference” value in experiment [2] is recorded as 4. Besides, the “Diaphyses parameters, difference vs OVX control group” value in experiment [2] (pQCT, femoral diaphyses, all parameters) is “no significant difference”. In addition, the “Conclusion of 3-D image analysis: effects on bone density and trabecular structure” value in experiment [3] is “both effects on an increased bone density and improved trabecular structure, with the improvement in trabecular structure being prevalent effect”. In experiment [3] (μCT, femoral distal epiphyses), the “Order according to the importance of the effects on improvement of trabecular bone structure” value was “MK7, the composite and MK4 is arranged in this order”.

Consider `O=P(O)(O)C(O)(Cc1cccnc1)P(=O)(O)O` [Risedronate, risedronate], for which, in experiment [1], the “ALP activity in serum” value was found to be 3.65 ± 1.26 BL unit, the Ca in serum was 9.02 ± 1.15 mg/dL, the Mg in serum was 3.12 ± 1.21 mg/dL and the P in serum was 6.95 ± 0.32 mg/dL. In addition, in experiment [2], the “Items showing a significant difference” value is 6. Further, in experiment [2] (setting [4]), the “Diaphyses Cortical Bone Cross-Section, significant difference vs OVX control group” value is “p < 0.05” and the “Diaphyses Cortical Bone Thickness, significant difference vs OVX control group” value is reported as “p < 0.05”. Also, in experiment [2] (setting [5]), the “Diaphyses Cortical Bone Cross-Section, significant difference vs OVX control group” value is “significant increase” and the “Diaphyses Cortical Bone Thickness, significant difference vs OVX control group” value is listed as “significant increase”. In addition, in experiment [2] (setting [6]), the “Epiphyses Bone Density, significant difference vs OVX control group” value is reported as “p < 0.01”; the “Epiphyses Cortical Bone Cross-Section, significant difference vs OVX control group” value is “p < 0.05”; the “Epiphyses Cortical Bone Thickness, significant difference vs OVX control group” value is “p < 0.05”; the “Epiphyses Trabecular Bone Density, significant difference vs OVX control group” value is on record as “p < 0.05”. Besides, in experiment [2] (setting [7]), the “Epiphyses Bone Density, significant difference vs OVX control group” value is “significant increase”; the “Epiphyses Cortical Bone Cross-Section, significant difference vs OVX control group” value was “significant increase”; the “Epiphyses Cortical Bone Thickness, significant difference vs OVX control group” value is “significant increase”; the “Epiphyses Trabecular Bone Density, significant difference vs OVX control group” value is recorded as “significant increase”. Moreover, the “Number of parameters with significant effects on improvement of trabecular bone structure” value in experiment [3] (μCT, femoral distal epiphyses, vs OVX control group (Table 9)) turned out to be 12.

Source of the values: US20090110748A1, “Biocompatible Material and Process for Manufacturing the Same” (priority 2007, published 2009).
